# Results published in ChEMBL document CHEMBL4819081 (Eur J Med Chem, 2021).
# Active and inactive are the calls of the source. The calls are words filed in the database; no cut-off is given here.
# Tests used:
# MDA-MB-231 [1] = experiment: Antiproliferative activity against human MDA-MB-231 cells assessed as reduction in cell viability after 72 hrs by MTT assay; format: functional, cell-based; conditions: MDA-MB-231, 72 h
# MDA-MB-453 [2] = experiment: Antiproliferative activity against human MDA-MB-453 cells assessed as reduction in cell viability after 72 hrs by MTT assay; format: functional, cell-based; conditions: MDA-MB-453, 72 h
# MCF7 [3] = experiment: Antiproliferative activity against human MCF7 cells assessed as reduction in cell viability after 72 hrs by MTT assay; format: functional, cell-based; conditions: MCF7, 72 h
# MDA-MB-231 [4] = experiment: Inhibition of clone formation in human MDA-MB-231 cells at 0.16 uM after 14 days by crystal violet staining based-colony formation assay; format: functional, cell-based; conditions: time 14.0 day
# L02 = experiment: Cytotoxicity against human L02 cells measured upto 20 uM after 72 hrs by MTT assay; format: cell-based; conditions: l02, 72 h
# [5] = molecular target: CDK6/cyclin D3 (Homo sapiens) (UniProt P30281+Q00534); experiment: Inhibition of CDK6/Cyclin D3 (unknown origin) at 200 nM using ATP by mobility shift assay; format: protein-complex assay
# CDK6/cyclin D3 = CDK6/cyclin D3 (Homo sapiens, UniProt Q00534); experiment: Inhibition of CDK6/Cyclin D3 (unknown origin) by mobility shift assay; format: protein-complex assay
# MDA-MB-231 [6] = experiment: Induction of cell cycle arrest in human MDA-MB-231 cells assessed as accumulation at G1 phase at 0.1875 uM after 12 hrs by propidium iodide staining-based flow cytometric analysis (reference value: 53.11%); format: functional
# MDA-MB-231 [7] = experiment: Induction of cell cycle arrest in human MDA-MB-231 cells assessed as accumulation at S phase at 0.1875 uM after 12 hrs by propidium iodide staining-based flow cytometric analysis (reference value: 23.71%); format: functional
# MDA-MB-231 [8] = experiment: Induction of cell cycle arrest in human MDA-MB-231 cells assessed as accumulation at S phase at 0.1875 uM after 12 hrs by propidium iodide staining-based flow cytometric analysis (reference value: 21.11%); format: functional
# MDA-MB-231 [9] = experiment: Induction of cell cycle arrest in human MDA-MB-231 cells assessed as accumulation at G1 phase at 0.375 uM after 12 hrs by propidium iodide staining-based flow cytometric analysis (reference value: 53.11%); format: functional
# MDA-MB-231 [10] = experiment: Induction of cell cycle arrest in human MDA-MB-231 cells assessed as accumulation at S phase at 0.375 uM after 12 hrs by propidium iodide staining-based flow cytometric analysis (reference value: 23.71%); format: functional
# MDA-MB-231 [11] = experiment: Induction of cell cycle arrest in human MDA-MB-231 cells assessed as accumulation at S phase at 0.375 uM after 12 hrs by propidium iodide staining-based flow cytometric analysis (reference value: 21.11%); format: functional
# MDA-MB-231 [12] = experiment: Induction of cell cycle arrest in human MDA-MB-231 cells assessed as accumulation at G1 phase at 0.75 uM after 12 hrs by propidium iodide staining-based flow cytometric analysis (reference value: 53.11%); format: functional
# MDA-MB-231 [13] = experiment: Induction of cell cycle arrest in human MDA-MB-231 cells assessed as accumulation at G2 phase at 0.75 uM after 12 hrs by propidium iodide staining-based flow cytometric analysis (reference value: 21.11%); format: functional
# MDA-MB-231 [14] = experiment: Induction of cell cycle arrest in human MDA-MB-231 cells assessed as accumulation at S phase at 1.5 uM after 12 hrs by propidium iodide staining-based flow cytometric analysis (reference value: 23.71%); format: functional
# MDA-MB-231 [15] = experiment: Induction of cell cycle arrest in human MDA-MB-231 cells assessed as accumulation at G2 phase at 1.5 uM after 12 hrs by propidium iodide staining-based flow cytometric analysis (reference value: 21.11%); format: functional
# MDA-MB-231 [16] = experiment: Antitumor activity against human MDA-MB-231 cells xenografted in po dosed BALB/c mouse assessed as reduction in tumor weight measured every 3 days for 21 days; format: functional, organism-based; conditions: dose 40-80 mg/kg, time […]
# MDA-MB-231 [17] = experiment: Induction of apoptosis in human MDA-MB-231 cells assessed as early apoptotic cells at 0.625 uM after 24 hrs by Annexin-V/PI-staining based flow cytometry (reference value: 2.67%); format: functional
# MDA-MB-231 [18] = experiment: Induction of apoptosis in human MDA-MB-231 cells assessed as late apoptotic cells at 0.625 uM after 24 hrs by Annexin-V/PI-staining based flow cytometry (reference value: 3.02%); format: functional
# MDA-MB-231 [19] = experiment: Induction of apoptosis in human MDA-MB-231 cells assessed as early apoptotic cells at 1.25 uM after 24 hrs by Annexin-V/PI-staining based flow cytometry (reference value: 2.67%); format: functional
# MDA-MB-231 [20] = experiment: Induction of apoptosis in human MDA-MB-231 cells assessed as late apoptotic cells at 1.25 uM after 24 hrs by Annexin-V/PI-staining based flow cytometry (reference value: 3.02%); format: functional
# MDA-MB-231 [21] = experiment: Induction of apoptosis in human MDA-MB-231 cells assessed as late apoptotic cells at 2.5 uM after 24 hrs by Annexin-V/PI-staining based flow cytometry (reference value: 3.02%); format: functional
# MDA-MB-231 [22] = experiment: Induction of apoptosis in human MDA-MB-231 cells assessed as early apoptotic cells at 5 uM after 24 hrs by Annexin-V/PI-staining based flow cytometry (reference value: 2.67%); format: functional
# MDA-MB-231 [23] = experiment: Induction of apoptosis in human MDA-MB-231 cells assessed as late apoptotic cells at 5 uM after 24 hrs by Annexin-V/PI-staining based flow cytometry (reference value: 3.02%); format: functional
# MDA-MB-231 [24] = experiment: Induction of apoptosis in human MDA-MB-231 cells assessed as late apoptotic cells at 10 uM after 24 hrs by Annexin-V/PI-staining based flow cytometry (reference value: 3.02%); format: functional
# MDA-MB-231 [25] = experiment: Antitumor activity against human MDA-MB-231 cells xenografted in BALB/c mouse assessed as tumor growth inhibition at 80 mg/kg, po measured every 3 days for 21 days; format: functional; conditions: MDA-MB-231, po, 504 h, time 21 day, read-out: TGI
# MDA-MB-231 [26] = experiment: Antitumor activity against human MDA-MB-231 cells xenografted in BALB/c mouse assessed as tumor growth inhibition at 40 mg/kg, po measured every 3 days for 21 days; format: functional; conditions: MDA-MB-231, po, 504 h, time 21 day, read-out: TGI
# MDA-MB-231 [27] = experiment: Antitumor activity against human MDA-MB-231 cells xenografted in po dosed BALB/c mouse assessed as reduction in tumor volume measured every 3 days for 21 days; format: functional, organism-based; conditions: dose 40-80 mg/kg, time 21.0 day
# MDA-MB-453 [28] = experiment: Potency index, ratio of IC50 for Palbociclib to IC50 for test compound for antiproliferative activity against human MDA-MB-453 cells assessed as reduction in cell viability after 72 hrs by MTT assay; format: functional
# MCF7 [29] = experiment: Potency index, ratio of IC50 for Palbociclib to IC50 for test compound for antiproliferative activity against human MCF7 cells assessed as reduction in cell viability after 72 hrs by MTT assay; format: functional
# [30] = Toxicity in BALB/c mouse xenografted with human MDA-MB-231 cells assessed as body weight change at 40 to 80 mg/kg, po measured every 3 days for 21 days; format: organism-based; conditions: in vivo, 72 h, dose 40-80 mg/kg, time 3 day
# CDK2/Cyclin A2 = CDK2/Cyclin A2 (Homo sapiens, UniProt P24941); experiment: Inhibition of CDK2/cyclin A2 (unknown origin); format: protein-complex assay
# [31] = molecular target: Cyclin-dependent kinase 9 (Homo sapiens, UniProt P50750); experiment: Inhibition of CDK9 (unknown origin)
# Cyclin-dependent kinase 9, sequence (P50750 whole entry): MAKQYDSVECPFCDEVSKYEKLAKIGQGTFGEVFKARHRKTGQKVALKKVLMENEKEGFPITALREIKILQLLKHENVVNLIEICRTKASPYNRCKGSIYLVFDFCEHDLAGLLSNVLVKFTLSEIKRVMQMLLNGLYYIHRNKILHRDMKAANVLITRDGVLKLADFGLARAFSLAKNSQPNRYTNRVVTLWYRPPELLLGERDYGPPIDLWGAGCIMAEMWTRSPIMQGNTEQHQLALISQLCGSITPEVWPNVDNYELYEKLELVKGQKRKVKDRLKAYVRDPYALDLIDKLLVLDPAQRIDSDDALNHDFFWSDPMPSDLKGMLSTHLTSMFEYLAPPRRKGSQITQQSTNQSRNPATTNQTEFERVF
# CDK6/cyclin D3, sequence (P30281 whole entry): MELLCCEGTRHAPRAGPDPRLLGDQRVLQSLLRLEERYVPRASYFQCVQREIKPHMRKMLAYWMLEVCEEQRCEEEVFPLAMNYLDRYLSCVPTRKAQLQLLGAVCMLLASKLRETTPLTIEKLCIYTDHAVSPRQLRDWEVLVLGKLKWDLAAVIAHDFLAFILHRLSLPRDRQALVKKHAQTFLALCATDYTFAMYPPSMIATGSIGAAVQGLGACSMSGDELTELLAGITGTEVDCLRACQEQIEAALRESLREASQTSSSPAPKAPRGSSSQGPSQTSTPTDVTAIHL
# CDK6/cyclin D3, sequence (Q00534 whole entry): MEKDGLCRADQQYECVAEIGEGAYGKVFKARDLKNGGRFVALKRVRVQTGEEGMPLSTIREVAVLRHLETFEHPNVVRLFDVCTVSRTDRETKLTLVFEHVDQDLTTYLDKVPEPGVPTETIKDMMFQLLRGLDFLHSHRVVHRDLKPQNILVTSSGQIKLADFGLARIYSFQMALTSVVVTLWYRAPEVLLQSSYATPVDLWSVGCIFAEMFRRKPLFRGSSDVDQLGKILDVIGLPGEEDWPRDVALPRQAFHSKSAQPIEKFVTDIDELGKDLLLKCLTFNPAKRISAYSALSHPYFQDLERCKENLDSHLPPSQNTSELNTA
compound,measurement,setting,value
CC(=O)c1c(C)c2cnc(Nc3ccc(N4CCN(C(=O)CCl)CC4)cn3)nc2n(C2CCCC2)c1=O,IC50,MDA-MB-231 [1],1210 nM
same,IC50,MDA-MB-453 [2],1750 nM
same,IC50,MCF7 [3],380 nM
same,inhibition,MDA-MB-231 [4],Active
same,Activity,L02,Non-Toxic
same,inhibition,[5],95.3%
same,IC50,CDK6/cyclin D3,14 nM
same,Activity,MDA-MB-231 [6],68.04%
same,Activity,MDA-MB-231 [7],15.55%
same,Activity,MDA-MB-231 [8],13.82%
same,Activity,MDA-MB-231 [9],68.34%
same,Activity,MDA-MB-231 [10],15.36%
same,Activity,MDA-MB-231 [11],14.99%
same,Activity,MDA-MB-231 [12],71%
same,Activity,MDA-MB-231 [13],16.49%
same,Activity,MDA-MB-231 [14],7.55%
same,Activity,MDA-MB-231 [15],19.72%
same,inhibition,MDA-MB-231 [16],Dose-Dependent Effect
same,Activity,MDA-MB-231 [17],4.24%
same,Activity,MDA-MB-231 [18],3.82%
same,Activity,MDA-MB-231 [19],7.72%
same,Activity,MDA-MB-231 [20],9.72%
same,Activity,MDA-MB-231 [21],31.65%
same,Activity,MDA-MB-231 [22],44.02%
same,Activity,MDA-MB-231 [23],27.32%
same,Activity,MDA-MB-231 [24],14.54%
same,inhibition in vivo at 80 mg/kg,MDA-MB-231 [25],105%
same,inhibition in vivo at 40 mg/kg,MDA-MB-231 [26],93.5%
same,inhibition,MDA-MB-231 [27],Dose-Dependent Effect
same,Ratio IC50,MDA-MB-453 [28],40
same,Ratio IC50,MCF7 [29],40
same,Activity,[30],Non-Toxic
same,IC50,CDK2/Cyclin A2,7600 nM
same,IC50,[31],1830 nM
